Test results from the METLIN SMRT retention time set (Domingo-Almenara et al. 2019).

assay: gradient 5% acetonitrile 3 min, to 50% in 2 min, to 85% in 15 min, held 3 min, 100 µL/min; conditions: column: Zorbax Extend-C18 2.1 x 50 mm; eluents: water / acetonitrile, 0.1% formic acid
Method in brief: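 The mobile phases were water and acetonitrile, each with 0.1% formic acid, pumped at 100 μL/min through a Zorbax Extend-C18 column (2.1 × 50 mm, 1.8 μm). Pure standards were injected as mixtures of ~100 molecules and detected by a quadrupole time-of-flight mass spectrometer in positive and negative ionization mode. Retention time came from computationally picked adduct peaks, each inspected by hand.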

SMILES	RP-LC retention time [s]
Cc1cccc(Nc2c(-c3cccc(O)c3)nc3cnccn23)c1C	816
COCCc1noc(C2CN(C(=O)C3COc4ccccc4O3)C2)n1 (stereo not drawn)	736
O=C(c1cccs1)N1CC(C(=O)N2CCN(c3ncccn3)CC2)C1	604
COCCNC(=O)Cc1ccc(NC(=O)c2ccc(C(C)(C)C)cc2)cc1	790
CCC(=O)N(CCCOC)CC(=O)N1CCc2sccc2C1COc1ccccc1F (stereo not drawn)	912
COc1ccc(OC)c(NC(=O)Cn2c(=O)n(-c3ccc(C)cc3)c(=O)c3c2cc(C)n3C)c1	908
O=C(CSc1nc2ccccc2o1)Nc1cc(C(F)(F)F)ccc1Cl	891
COc1ccc(CNC2=NCCNC23CCN(S(=O)(=O)c2ccc(C)cc2)CC3)cc1	732
Cc1cc(C)nc(N2CCN(c3c4c(nc5c(-c6ccccc6)c(C)nn35)CCC4)CC2)n1	1210
Cc1ccc(CNC(=O)C2(C)CCCN(C(=O)NCc3ccccc3)C2)cc1 (stereo not drawn)	878
CCOc1ccccc1NC(=O)c1c(O)c2cccnc2n(-c2ccccc2)c1=O	1330
O=C1CC(NC(=O)c2cnn(-c3ccccc3)n2)CN1 (stereo not drawn)	603
Cc1ccccc1NC(=O)Nc1cccnc1N(C)C	590
COc1ccc(-c2nnc(-c3cccc(S(=O)(=O)N4CCCCCC4)c3)o2)cc1	1130
O=C(C1CCN(c2cnc3nccnc3c2)CC1)N1CCN(c2ccc(Cl)cc2)CC1	810
CCCCN1C(=O)C(CC(=O)NCCC)Sc2ncccc21 (stereo not drawn)	750
Cc1ccccc1-c1nnc(CSc2nnc(NC(=O)c3cccs3)s2)o1	908
Cc1ccc(N2CCN(S(=O)(=O)c3ccc(-c4nnc(C5CCC5)o4)o3)CC2)cc1	1120
O=C(c1ccc(OCC2CCCN2C(=O)c2ccc(F)cc2F)cc1)N1CCOCC1 (stereo not drawn)	723
Cc1nn(C)c(C)c1CCCN(C)C(=O)c1cc2c(s1)N(C)CCCC2	770
COc1ccccc1N1CCN(c2cc(SCC(=O)Nc3ccc(F)cc3)ncn2)CC1	941
CCc1ccc(Oc2cc(N3CCC(C(=O)NCC(C)c4ccccc4)CC3)ncn2)cc1 (stereo not drawn)	1090

SMILES	RP-LC retention time [s]
Cc1ccn2cc(C(=O)N3CCN(c4cccc(C)c4C)CC3)nc2c1	769
Cc1cc(C)c2c(N3CCCC3)nc(C(=O)NCc3cccnc3)nc2n1	537
O=C(CCc1ccccc1)Nc1nc(-c2cccc3ccccc23)cs1	1170
O=C(NCc1ccc(F)cc1F)c1ccc(Cn2c(C(F)(F)F)nc3cccnc32)cc1	925
Cc1nc(-c2ccc(N3CCN(C(=O)c4ccsc4)CC3)nc2)sc1C	803
Cc1ccc2c(Nc3ccc(C(C)C)cc3)c(C(=O)N3CCCCC3C)cnc2n1 (stereo not drawn)	737
COc1ccc2sc(OC3CCN(C(=O)NC(C)C)CC3)nc2c1	819
Cc1ccc(S(=O)(=O)N2CCC3(CCN(c4cccnc4)C3)C2)c(C)c1 (stereo not drawn)	684
COc1ccc(-n2c(N(C)C)nc3cc(C(=O)NC4CC4)sc32)cc1	653
COc1cccc(-c2nc(-c3ccc(-n4ccnc4)nc3)no2)c1	736
Cc1cccc(N2CCN(C(=O)C3CCN(C(=O)C4Sc5ccccc5NC4=O)CC3)CC2C)c1 (stereo not drawn)	725
COC[C@@H]1CN(c2ncccn2)C[C@H]1C(=O)N(C)Cc1ccco1	619
COc1ccc(NC(=O)c2cn(C)nc2S(=O)(=O)N2CCC(C)CC2)c(F)c1	997
Cc1cccc(NC(=O)CSc2cc(N3CCCC(C)C3)ncn2)c1 (stereo not drawn)	1020
O=C(NCCc1csc(-c2ccc(F)cc2)n1)Oc1ccccc1	944
CCN(CCNC(=O)c1ccc2[nH]c3c(c2c1)CN(C(C)=O)CC3)c1ccccc1	1160
O=C(c1ccsc1)N1CCN(S(=O)(=O)c2cc(-c3noc(C4CCC4)n3)cs2)CC1	985
O=S(=O)(NCC(O)c1ccc(C(F)(F)F)cc1)c1ccc2c(c1)CCCC2 (stereo not drawn)	984
CCC(C(=O)Nc1cnn(-c2ncc(N(C)C)cn2)c1)c1ccccc1 (stereo not drawn)	811
CC1CN=C2C=C(N3CCN(C(=O)Nc4ccccc4C(F)(F)F)CC3)N=CN21 (stereo not drawn)	615
O=C(Cn1nc2n(c1=O)CCCCC2)Nc1cccc(F)c1	701
COc1ccc(NC(=O)Cn2nc3cc(C)nc(-c4ccccc4)n3c2=O)c(OC)c1	830

SMILES	RP-LC retention time [s]
Cc1cc(Cl)ccc1S(=O)(=O)N1CCC(F)(c2nc(CC(C)C)no2)CC1	1260
O=C1COc2ccccc2N1Cc1nc(-c2ccc3c(c2)ncn3C2CCCC2)no1	766
CCCCCOc1ccc(C(=O)N(Cc2ccc(C)o2)C2CCS(=O)(=O)C2)cc1 (stereo not drawn)	1110
CS(=O)(=O)N1CCC(C(=O)Nc2ccccc2Br)Oc2ccccc21 (stereo not drawn)	996
CCC(C)NC(=O)c1cnn(-c2ccc(-c3nc(C4CC4)no3)cn2)c1C (stereo not drawn)	899
COc1cccc(/C=C2\CCc3ccccc3C2=O)c1	1200
COc1ccccc1Cc1noc(C2CN(C(=O)c3cc(C4CC4)on3)C2)n1	876
CN(C)CCn1c2c(c(SCC(=O)Nc3ccccc3Cl)nc1=O)CCC2	624
COc1ccc(-c2csc(NC3=NS(=O)(=O)c4ccccc43)n2)cc1	886
O=C(Nc1nnc(C2=COCCO2)o1)C1CCN(S(=O)(=O)c2cccs2)CC1	643
COc1cccc(CNC(=O)CN2C(=O)C3CCCCN3c3ccc(S(=O)(=O)N(C)C)cc32)c1 (stereo not drawn)	887
CCc1nc2ccc(-c3noc(CNS(=O)(=O)c4ccccc4)n3)cc2n1CC	653
CCN(CC)S(=O)(=O)c1ccc2c(c1)N(CC(=O)NCCCOC(C)C)C(=O)C1CCCCN21 (stereo not drawn)	907
Cc1cccc(Cn2c(=O)n(CCNC(=O)C3CCCO3)c3ncccc32)c1 (stereo not drawn)	715
O=C(CCc1c(-c2ccc(F)cc2)nc2ccccn12)NCc1ccccc1Cl	779
COC(=O)c1ccccc1Nc1c(-c2cccc(O)c2)nc2cnccn12	792
O=C(CSc1nccn1Cc1ccco1)Nc1ccccc1C(F)(F)F	637
Cc1cc(C)n(-c2ccnc(N3CCC(C(=O)N4CCN(c5ccccn5)CC4)CC3)n2)n1	629
CCNc1nc(C)cc(N2CCN(S(=O)(=O)c3ccc(C(F)(F)F)cc3)CC2)n1	754
c1ccc(CCc2nc3nccc(-c4cccnc4)n3n2)cc1	726
CCCCCn1c(=O)c2ccccc2n(Cc2nc(-c3cccc(C)c3)no2)c1=O	1310
COc1ccc(-c2[nH]ncc2CN2CCC3(CC2)CC(C)(O)CCO3)cc1 (stereo not drawn)	588

SMILES	RP-LC retention time [s]
CCCCCCC(=O)OC1CC(C)(C)NC(C)(C)C1	707
CCOC(=O)COc1cc(-c2ccc(C)cc2)nc2ccc(NC(=O)C3CCCC3)cc12	854
COC(=O)c1ccccc1NC(=O)Cn1cccc(-c2nc(-c3ccc(OC)c(OC)c3)no2)c1=O	871
CN(CC(=O)O)c1nc2c(Cl)cc(Cl)cc2s1	888
CCCC(=O)N1CCCC1COc1ccc(C(=O)N2CCCC2)cc1 (stereo not drawn)	600
O=C(c1ccccc1)N1CCC(n2c(-c3ccoc3)nc3cccnc32)C1 (stereo not drawn)	695
COc1ccc(S(=O)(=O)Nc2cc(-c3cn4ccccc4n3)ccc2C)cc1C	682
CN(C)c1ccc(CNC(=O)c2cc3n(n2)CC(C)(C(=O)NCc2ccccc2)N(C)C3=O)cc1 (stereo not drawn)	607
Cc1ccc(S(=O)(=O)N2CCN(c3cc(C)nc(NC4CCCCC4)n3)CC2)cc1	811
Oc1c(C(c2ccccn2)N2CCN(c3ccccc3F)CC2)ccc2cccnc12 (stereo not drawn)	567
CCCn1ccc2oc(C)c(C(=O)N3CCN(c4ccc(OC)cc4)CC3)c2c1=O	707
CCC1(O)CCC12CCN(C(=O)C1CCCC1)CC2 (stereo not drawn)	773
COCCn1c(CCCC(=O)N2CCN(c3ncccn3)CC2)nc2cccnc21	596
CCOC(=O)CNC(=O)N1CCN(Cc2nc3cccnc3n2-c2ccc(F)cc2)CC1	602
O=C(NC1(c2nc(-c3ccncc3)no2)CCCCC1)c1ccc2c(c1)OCO2	876
Cc1cc(C2CCCN2C(=O)Cc2ccc(F)cc2Cl)on1 (stereo not drawn)	851
CC(=O)N1c2ccc(S(=O)(=O)N3CCCCCC3)cc2CC1C(=O)NCc1ccccc1Cl (stereo not drawn)	950
O=C1CC(c2ccc(O)cc2)Oc2cc(O)cc(O)c21 (stereo not drawn)	784
O=C(NCCn1nnc2cc(C(=O)N3CCCC3)ccc21)Nc1ccccc1Cl	892
CCNC(=O)NCCC1CCN(S(=O)(=O)c2ccc(F)cc2)CC1	728
COc1ccc(Nc2c(C(=O)N3CCCCC3C)cnc3nc(C)ccc23)cc1 (stereo not drawn)	639
Cc1cc(OCC(=O)Nc2ccc(C#N)cc2)nc(N2CCN(c3ccccc3)CC2)n1	802
